Assay results from patent US6458382B1, “Nucleic acid transfer complexes” (Mirus Corporation, priority 1999, dated 2002).

Columns and labels:
insect cells = assay: Transfection of insect cells with DOTAP-based reagent; conditions: insect cell lines grown in vitro (e.g., Sf9, Sf21, High Five, S2)
Text: Addition of detergents increases the efficiency of a transfection reagent. However, the optimal type and amount of detergent vary for different transfection reagents and target cell types. […] In a typical transfection reagent, the DOTAP is mixed with a neutral lipid (e.g., DOPE, cholesterol) to form a liposome. […] Optimal enhancement with DLPE was obtained over a range of 1-10% (weight percentage of total composition of DOTAP, DOPE, and neutral lipid).

Sf9 cells = assay: Transfection of Sf9 cells, β-galactosidase reporter (Examples 3, 4); format: cell-based, Spodoptera frugiperda; conditions: for Efficiency of detergent added to DOTAP/neutral lipid reagent, in words: transfecting Sf9 cells
Description: Sf21 (Spodoptera frugiperda pupal ovarian cells) cells were maintained in TC-100 medium, and High Five or BTI-TN-5BI-4 (Trichoplusia ni embryonic ovarian cells) cells were maintained in Ex-Cell medium at 27° C. in an atmosphere of 5% CO2 in air. S2 (Drosophila melanogaster embryonic cells) were maintained in Shields and Sang M3 medium supplemented with 5% FCS at 25° C. The cells were seeded in a 6-well plate (35 mm culture dishes) 24 h before the transfection at 70% confluence. Before transfection, the cells were washed once or twice with serum-free medium, and placed in 2 ml serum-free medium per 35-mm dish. The liposomes were diluted in 0.15 ml of serum-free medium. Following a 5 minute incubation at room temperature, two μg of plasmid DNA (containing the luciferase or β-galactosidase reporter genes described below) was added, followed by a 5 minute incubation at room temperature prior to being added to the cells in the culture dish. The cells were incubated under the appropriate conditions. After four hours, the transfection mixture was removed and replaced with 2 ml of regular culture medium. […]
The firefly luciferase and E. coli β-galactosidase reporter genes were used to determine the efficiency of DNA transfer quantitatively. […]
For determination of luciferase activity, cells were lysed by the addition of 200 μl of lysis buffer (0.1% Triton X-100, 0.1M K-phosphate, 1 mM DTT, pH 7.8). Ten μl of the cellular extract were analyzed for luciferase activity, using the Enhanced Luciferase Assay kit (Mirus). For determination of β-galactosidase activity, the cells were lysed by the addition of 200 μl of lysis buffer (0.1% Triton X-100, 0.1M K-phosphate, 1 mM DTT, pH 7.8). β-Galactosidase activity was determined using a chemiluminescent assay (Tropix).
Two μg of the β-galactosidase expression vector pIE1HR5/LacZ were transfected into Sf9 cells using TRANSIT-INSECTA, Reagent C (CELLFECTIN from Life Technologies) and Reagent I (INSECTIN-PLUS from Invitrogen). […] Reporter gene expression was determined after 2 days using a chemiluminescent assay (Tropix). […]

[1] = background statement on prior art; cited from earlier work

SMILES: CCCCCCCC/C=C\CCCCCCCC(=O)OCC(C[N+](C)(C)C)OC(=O)CCCCCCC/C=C\CCCCCCCC (centres unmarked) [DOTAP, 1,2-bis(oleoyloxy)-3-(4′-trimethylammonio)propane]
- Transfection efficiency for insect cells, in words (insect cells): efficient transfection reagent

SMILES: CCCCCCCCCCCC(=O)OC[C@H](COP(=O)([O-])OCC[N+](C)(C)C)OC(=O)CCCCCCCCCCC [DLPC, dilauroylphosphatidylcholine]
- Efficiency of detergent added to DOTAP/neutral lipid reagent, in words (Sf9 cells): more efficient than addition of CHAPS

SMILES: CCCCCCCCCCCCCCCCCCN [Stearylamine]
- cytotoxicity, in words [1]: great cytotoxicity

SMILES: CCCCCCCCCCCC(=O)OC[C@H](COP(=O)(O)OCCN)OC(=O)CCCCCCCCCCC [DLPE, dilauroyl phosphatidylethanolamine]
- Efficiency of detergent added to DOTAP/neutral lipid reagent, in words (Sf9 cells): more efficient than addition of CHAPS
- Range of DLPE giving optimal enhancement of transfection efficiency (Sf9 cells; weight percentage of total composition of DOTAP, DOPE, and neutral lipid): 1-10%
